One series deals with T1, rat EP2 receptor (Rattus norvegicus, UniProt Q62928).
T1 construct: expressed in transfected cells; host or cells: CHO cells (rEP2-CHO)
Kind of series: Measurement of EP2 agonist activity (intracellular cyclic AMP concentration, cAMP assay). Format: cell-based. The conditions noted are these: rEP2-CHO cell, maximum = PGE2 (1 μmol/l). The protocol: (1-1) Measurement of EP2 Agonist Activity (Measurement of Intracellular Cyclic AMP (cAMP) Concentration (cAMP Assay))
A rat EP2 receptor forced expression cell (rEP2-CHO cell) was incubated in an incubator (5% CO2) of 37° C. using Minimum Essential Medium Eagle (Sigma, M4526) to which 10% fetal bovine serum (FBS, JRH) and 1/100 total volume of Penicillin Streptomycin Glutamine (GIBCO, 10378-016) had been added. The cells which reached confluent were exfoliated using trypsin and suspended in a medium (MEM medium containing 10% FBS) to a density of 2.0×10^5 cells per ml. The thus prepared suspension was seeded into a 24 well plate to be 1.0×10^5 cells per well portions and incubated for 48 hours. […]
The frozen sample was thawed and transferred to a micro centrifugation tube to be centrifuged (15,000 rpm, 4° C., 3 minutes). […] Using the upper layer as a sample, cAMP concentration was measured by a cAMP EIA system (cAMP Enzyme Immunoassay System, Amersham Biosciences).
Activity strengths of respective compounds were compared by calculating their EC50 values. The EC50 value was calculated by regarding changed amount of the cAMP concentration when PGE2 (1 μmol/l) was added instead of each compound as the maximum changed amount, and defining the value which gives half of the changed amount as the concentration of each compound.

A further series has as its target T2, rat EP3 receptor (Rattus norvegicus, UniProt P34980).
T2 construct: expressed in transfected cells; host or cells: CHO cells (rEP3-CHO)
T2 sequence (P34980 1-365): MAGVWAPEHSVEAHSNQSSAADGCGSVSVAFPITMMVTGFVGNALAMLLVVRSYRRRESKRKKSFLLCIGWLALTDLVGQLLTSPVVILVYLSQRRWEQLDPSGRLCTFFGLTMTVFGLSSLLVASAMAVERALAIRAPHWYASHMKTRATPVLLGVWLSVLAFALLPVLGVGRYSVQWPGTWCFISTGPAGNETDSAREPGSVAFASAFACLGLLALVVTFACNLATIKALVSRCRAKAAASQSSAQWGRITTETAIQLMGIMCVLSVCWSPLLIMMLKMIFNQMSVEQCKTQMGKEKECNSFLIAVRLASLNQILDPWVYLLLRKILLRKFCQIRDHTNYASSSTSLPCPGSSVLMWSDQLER
Kind of series: Measurement of EP3 agonist activity (intracellular calcium concentration real time imaging, Ca2+ assay). It is filed as cell-based. The conditions noted are these: rEP3-CHO cell, maximum = PGE2 (100 nmol/L). How it is done:
(1-2) Measurement of EP3 Agonist Activity (Intracellular Calcium Concentration Real Time Imaging (Ca^2+ Assay))
A rat EP3 receptor forced expression cell (rEP3-CHO cell) was incubated in an incubator (5% CO2) of 37° C. using Minimum Essential Medium Eagle (Sigma, M4526) to which 10% fetal bovine serum (FBS, JRH) and 1/100 of total volume of Penicillin Streptomycin Glutamine (GIBCO, 10378-016) had been added. The cells which reached confluent were exfoliated using trypsin and suspended in a medium (MEM medium containing 10% FBS) to a density of 1.0×10^5 cells per ml. […]
After the incubation, the culture fluid was removed from each well of the plate and a Fura2 loading buffer (10% FBS-containing MEM medium supplemented with Fura2-AM (5 μmol/L), HEPES (10 mmol/L), probenecid (2.5 mmol/L) and indometacin (20 μmol/L)) was added thereto, followed by incubating in an incubator (5% CO2) of 37° C. […] Measurement of the fluorescence intensity was continuously carried out for 3 minutes after addition of the compound.
Activity intensity of each compound was compared by calculating their EC50 values. The EC50 value was calculated by regarding mean of the changed amount of calcium concentration when PGE2 (100 nmol/L) was added instead of each compound as the maximum changed amount, and defining the value which gives half of the changed amount as the concentration of each compound. […]
On the technique in general: Calcium flux is commonly read through the fluorescence of an indicator in the cells.

The subject of the next series is rat. In words: Measurement of the cauda equina blood flow and the blood pressure. It is filed as in vivo. The conditions noted are these: urethane-anesthetized rat, continuous infusion through caudal vein for 30 minutes. The protocol: (3) The Measurement of the Cauda Equina Blood Flow and the Blood Pressure
1.5 g/kg of urethane was administered intraperitoneally to the rat to be anesthetized, and the catheter (for measurement of blood pressure and ventricular rate) was placed in left carotid artery in supine position. The rat was reversed to prone position and the lumbar part was incised in the median line. The laminectomy was given to the fifth lumbar vertebra and the spinal cord (cauda equina) was exposed. The cauda equina blood flow was measured by the laser-Doppler flowmetry (OMEGAFLD FLO-NI and ADVANCE LASER FLOWMETER ALF21N, OMEGA WAVE Inc.) through a noncontact probe (ST-N type, OMEGA WAVE Inc.) and recorded with LINEARCORDER (Graphtech). The systemic blood pressure and the ventricular rate were measured from a left carotid artery with amplifier for the pressure measurement (GOULD) through a pressure transducer and recorded with LINEARCORDER (Graphtech). After confirming each parameter of blood pressure, ventricular rate and blood flow was stabilized, the test compound was administrated by continuous infusion through the winged needle placed in caudal vein for 30 minutes. It observed until 30 minutes after the administration and the increase rate of the cauda equina blood flow was calculated.
The increase rate of the cauda equina blood flow (%)=(B−A)/A×100 […]

A further series concerns cauda equina nerve. In words: Measurement of cauda equina nerve repair acceleration activity (rat cauda equina nerve compression gait disturbance model). Format: in vivo. The conditions noted are these: intravenous continuous administration 2 hours×twice/day, 2 weeks, in comparison with the physiological saline administration group. How it is done: (2) Measurement of Cauda Equina Nerve Repair Acceleration Activity
A rat cauda equina nerve compression gait disturbance model was prepared by the method of Takenobu et al. (J. Neurosci. Methods, 104 (2), 191-198, 2002). Namely, a rat was anesthetized with pentobarbital sodium and, after shaving its dorsal region, fixed at abdominal position. After disinfection of the dorsal region with chlorhexidine gluconate (5% hibitane liquid; Sumitomo Pharmaceuticals), the waist was median-incised to expose the spinal column. After excision of the fifth lumbar gemmule, a silicon rubber of 1×4×1.25 mm (height×length×width) was inserted into the fourth lumbar and sixth lumbar spinal canals from a small hole on the vertebral arch bored by a mini drill. For the purpose of avoiding infections, benzylpenicillin potassium (Crystalline Penicillin G Potassium Meiji; Meiji Seika Kaisha, Ltd.) was added dropwise to the incised part and intramuscularly injected into the thigh parts. The muscle and skin of the incised part were stitched with a surgical suture, and Iodine Tincture was applied to the stitched part. Animals of the sham operation group were prepared in accordance with the aforementioned method, but the insertion of silicon rubber was not carried out. […]

What is called EC50 is the concentration at which the effect is half-maximal.

T1 sequence (Q62928 whole entry): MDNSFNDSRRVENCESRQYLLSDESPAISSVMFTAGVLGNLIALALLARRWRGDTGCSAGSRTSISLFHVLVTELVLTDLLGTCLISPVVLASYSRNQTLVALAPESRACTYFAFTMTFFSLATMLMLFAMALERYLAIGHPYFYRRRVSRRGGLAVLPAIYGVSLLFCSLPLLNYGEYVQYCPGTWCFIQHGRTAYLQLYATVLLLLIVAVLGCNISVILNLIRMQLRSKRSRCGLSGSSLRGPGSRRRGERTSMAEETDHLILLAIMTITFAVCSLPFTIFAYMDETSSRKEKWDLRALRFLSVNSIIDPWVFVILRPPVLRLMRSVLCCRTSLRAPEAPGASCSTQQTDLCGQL

Take `C[C@@](O)(C/C=C/[C@H]1CCC(=O)[C@@H]1CCSc1nc(C(=O)O)cs1)CC1CCCCC1` [compound 17, 2-[(2-{(1R,2R)-2-[(1E,4S)-5-cyclohexyl-4-hydroxy-4-methyl-1-penten-1-yl]-5-oxocyclopentyl}ethyl)thio]-1,3-thiazole-4-carboxylic acid]: the EC50 on rat EP2 receptor is 11 nM; at rat EP3 receptor, 31 nM. The “decrease of the blood pressure” value with rat (left carotid artery) came to 5 mmHg. In addition, in the series with rat (observed until 30 minutes after), the “increase rate of the cauda equina blood flow” value amounted to 33%.

On to `O=C(O)c1csc(SCCN2C(=O)OC[C@@H]2/C=C/[C@@H](O)C2(CCCCF)CCC2)n1` [compound A, 2-{[2-((4S)-4-{(1E,3R)-3-[1-(4-fluorobutyl)cyclobutyl]-3-hydroxy-1-propenyl}-2-oxo-1,3-oxazolidin-3-yl)ethyl]sulfanyl}-1,3-thiazole-4-carboxylic acid], for which the EC50 on rat EP2 receptor was 16 nM; on rat EP3 receptor it was 99 nM. In addition, the “appearance rate of regeneration nerve fascicles” value in the series with cauda equina nerve is “significantly high appearance rate of regeneration nerve fascicles”.

The values are drawn from patent publication US8404858B2, “Agent for regeneration and/or protection of nerves” (Ono Pharmaceutical Co., Ltd., priority 2005, dated 2013).
